Laboratory results as given in patent publication US9187658B2, “Photopolymerizable inkjet ink, ink cartridge, and inkjet recording device” (Ricoh Company, Ltd., priority 2013, dated 2015).
Like-named read-outs stand apart in the source and are kept apart here. Blank lines part the entries; values can stand above or below the compound they belong to.

Legend:
skin sensitization [1] = details: cited from earlier work
skin sensitization [2] = details: vinyl ethers stated as negative; basis not given; cited from earlier work
female mice [3] = details: mouse, in vivo
Procedure: (§1) According to the skin sensitization test of local lymph node assay (LLNA) specified in OECD test guideline 429, the SI value was measured in the following manner.
(§2) Before treated with the test substances, the positive control or the vehicle control, female mice were acclimated for 8 days including 6-day quarantine. No abnormalities were found in all the mice (used animals) during the quarantine/acclimation period. Based on the body weights measured 2 days before the initiation of sensitization, they were categorized into 2 groups (4 mice/group) by the body weight stratified random sampling method so that the body weight of each individual was within ±20% of the average body weight of all the individuals. Each of the used animals was 8 weeks old to 9 weeks old at the time of the initiation of sensitization. […]
(§3) About 24 hours after the administration of BrdU, the used animals were allowed to undergo euthanasia, and their auricular lymph nodes were sampled. […] Also, the average of the weights of the auricular lymph nodes and the standard error thereof were calculated for each group. […]
(§4) After returning the auricular lymph nodes to room temperature, the auricular lymph nodes were mashed with the gradual addition of physiological saline, and suspended therein. […] The thus-dispensed suspensions were measured for intake of BrdU by the ELISA method. […]

female mice [4] = assay: Skin sensitization test, local lymph node assay (LLNA, OECD test guideline 429), BrdU intake by ELISA; details: test substance 50.0 w/v % in acetone/olive oil 4:1, 25 μL/auricle once a day for 3 days
Procedure: as §1, §2, §3, §4

Compound: O=C(c1ccccc1)C1(O)CCCCC1 [Irgacure 184, 1-hydroxycyclohexylphenyl ketone]
- Skin sensitization evaluated in MSDS (skin sensitization [1]): no

Compound: C=COCCCCO [hydroxybutyl vinyl ether]
- Skin sensitization (skin sensitization [2]): negative for skin sensitization

Compound: Cc1cc(C)c(C(=O)P(=O)(C(=O)c2c(C)cc(C)cc2C)c2ccccc2)c(C)c1 [Irgacure 819, Bis(2,4,6-trimethylbenzoyl)-phenylphosphone oxide]
- Skin sensitization evaluated in MSDS (skin sensitization [1]; MSDS): yes

- SI value (Stimulation Index) (female mice [3]): 1.0
Compound: Caprolactone-modified dipentaerythritol hexaacrylate [DPCA60]

Compound: C=COCCOCCOCCOC=C [triethylene glycol divinyl ether]
- Skin sensitization (skin sensitization [2]): negative for skin sensitization

Compound: C=COCC [ethyl vinyl ether]
- Skin sensitization (skin sensitization [2]): negative for skin sensitization

Compound: C=C(C)C(=O)OCCOCCOC(=O)C(=C)C [Compound 2G, Diethylene glycol dimethacrylate]
- SI value (Stimulation Index) (female mice [4]): 1.1
